Test results taken from patent publication US20150005288A1, “SUBSTITUTED PHENYLIMIDAZOPYRAZOLES AND USE THEREOF” (Bayer Intellectual Property GmbH, priority 2012, published 2015).

Target: T1, intracellular domain of human Tie2 (GST fusion protein) (Homo sapiens, UniProt Q02763)
T1 construct: intracellular domain of human Tie2 (amino acids 776-1124); made in house; host or cells: Baculovirus-infected insect cells (Hi5)
Test: Tie2 kinase assay (Tie2-TR-FRET)
Type: biochemical
Conditions: ATP concentration 1 mM, in some cases means of several independent determinations
Summary of the method: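 High ATP (1 mM final) with 1 μM biotin-peptide substrate; reaction 60 min at 22 °C after 15 min compound pre-binding to GST-Tie2 (aa 776-1124) in HEPES pH 7 with Mg/Mn. Phosphopeptide detected by TR-FRET emission ratio 665/620 nm. IC50 from 4-parameter fit over 20 μM to 0.073 nM, duplicates.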

T1 sequence (Q02763 776-1124): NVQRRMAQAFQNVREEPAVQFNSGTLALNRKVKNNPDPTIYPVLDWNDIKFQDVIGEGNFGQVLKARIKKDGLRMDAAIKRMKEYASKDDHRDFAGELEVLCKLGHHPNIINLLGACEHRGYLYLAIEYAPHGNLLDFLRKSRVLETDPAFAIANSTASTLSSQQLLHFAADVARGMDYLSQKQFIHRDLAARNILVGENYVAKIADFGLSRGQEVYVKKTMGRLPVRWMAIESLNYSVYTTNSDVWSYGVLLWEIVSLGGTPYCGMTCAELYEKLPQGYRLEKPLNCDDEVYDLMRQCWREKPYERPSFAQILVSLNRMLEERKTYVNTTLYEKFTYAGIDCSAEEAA

Structure (SMILES) | IC50 [nM]
Cc1cc(C)c(-n2ccn3nc(-c4cccnc4)cc23)cc1NC(=O)c1cc(C(C)(C)F)cc(S(F)(F)(F)(F)F)c1 [Example 149, N-{2,4-Dimethyl-5-[6-(pyridin-3-yl)-1H-imidazo[1,2-b]pyrazol-1-yl]phenyl}-3-(2-fluoropropan-2-yl)-5-(pentafluoro-λ^6-sulphanyl)benzamide] | 2.3
Cc1cc(C)c(-n2ccn3nc(-c4cccnc4)cc23)cc1NC(=O)c1cc(CC(=O)OC(C)(C)C)cc(S(F)(F)(F)(F)F)c1 [Example 150, tert-Butyl [3-({2,4-dimethyl-5-[6-(pyridin-3-yl)-1H-imidazo[1,2-b]pyrazol-1-yl]phenyl}-carbamoyl)-5-(pentafluoro-λ^6-sulphanyl)phenyl]acetate] | 2.4
Cc1cc(C)c(-n2ccn3nc(-c4cccnc4)cc23)cc1NC(=O)c1cc(CC(=O)O)cc(S(F)(F)(F)(F)F)c1 [Example 151, [3-({2,4-Dimethyl-5-[6-(pyridin-3-yl)-1H-imidazo[1,2-b]pyrazol-1-yl]phenyl}carbamoyl)-5-(pentafluoro-λ^6-sulphanyl)phenyl]acetic acid] | 6.1
COC(=O)Cc1cc(C(=O)Nc2cc(-n3ccn4nc(-c5cccnc5)cc34)c(C)cc2C)cc(S(F)(F)(F)(F)F)c1 [Example 152, Methyl [3-({2,4-dimethyl-5-[6-(pyridin-3-yl)-1H-imidazo[1,2-b]pyrazol-1-yl]phenyl}carbamoyl)-5-(pentafluoro-λ^6-sulphanyl)phenyl]acetate] | 0.4
Cc1cc(C)c(-n2ccn3nc(-c4cccnc4)cc23)cc1NC(=O)c1cc(CC(N)=O)cc(S(F)(F)(F)(F)F)c1 [Example 153, 3-(2-Amino-2-oxoethyl)-N-{2,4-dimethyl-5-[6-(pyridin-3-yl)-1H-imidazo[1,2-b]pyrazol-1-yl]-phenyl}-5-(pentafluoro-λ^6-sulphanyl)benzamide] | 0.3
Cc1cc(C)c(-n2ccn3nc(-c4cccnc4)cc23)cc1NC(=O)c1cc(CC(C)(C)O)cc(S(F)(F)(F)(F)F)c1 [Example 154, N-{2,4-Dimethyl-5-[6-(pyridin-3-yl)-1H-imidazo[1,2-b]pyrazol-1-yl]phenyl}-3-(2-hydroxy-2-methylpropyl)-5-(pentafluoro-λ^6-sulphanyl)benzamide] | 0.4
COCCOCc1cc(C(=O)Nc2cc(-n3ccn4nc(-c5cccnc5)cc34)c(C)cc2C)cc(S(F)(F)(F)(F)F)c1 [Example 155, N-{2,4-Dimethyl-5-[6-(pyridin-3-yl)-1H-imidazo[1,2-b]pyrazol-1-yl]phenyl}-3-[(2-methoxy-ethoxy)methyl]-5-(pentafluoro-λ^6-sulphanyl)benzamide] | 0.7
Cc1ccc(NC(=O)c2cc(C#N)cc(S(F)(F)(F)(F)F)c2)c(O)c1-n1ccn2nc(-c3cccnc3)cc12 [Example 156, 3-Cyano-N-{2-hydroxy-4-methyl-3-[6-(pyridin-3-yl)-1H-imidazo[1,2-b]pyrazol-1-yl]phenyl}-5-(pentafluoro-λ^6-sulphanyl)benzamide] | 5.9
Cc1ccc(NC(=O)c2cccc(S(F)(F)(F)(F)F)c2)cc1-n1ccn2nc(-c3cccnc3)c(F)c12 [Example 158, N-{3-[7-Fluoro-6-(pyridin-3-yl)-1H-imidazo[1,2-b]pyrazol-1-yl]-4-methylphenyl}-3-(pentafluoro-λ^6-sulphanyl)benzamide] | 58
Cc1ccc(NC(=O)c2cc(C#N)cc(S(F)(F)(F)(F)F)c2)cc1-n1ccn2nc(-c3cccnc3)c(F)c12 [Example 159, 3-Cyano-N-{3-[7-fluoro-6-(pyridin-3-yl)-1H-imidazo[1,2-b]pyrazol-1-yl]-4-methylphenyl}-5-(pentafluoro-λ^6-sulphanyl)benzamide] | 10
Cc1ccc(NC(=O)c2cc(C(C)(C)O)cc(S(F)(F)(F)(F)F)c2)cc1-n1ccn2nc(-c3cccnc3)c(F)c12 [Example 160, N-{3-[7-Fluoro-6-(pyridin-3-yl)-1H-imidazo[1,2-b]pyrazol-1-yl]-4-methylphenyl}-3-(2-hydroxypropan-2-yl)-5-(pentafluoro-λ^6-sulphanyl)benzamide] | 1
Cc1ccc(NC(=O)c2cccc(S(F)(F)(F)(F)F)c2)cc1-n1ccn2nc(-c3cncnc3)cc12 [Example 163, N-{4-Methyl-3-[6-(pyrimidin-5-yl)-1H-imidazo[1,2-b]pyrazol-1-yl]phenyl}-3-(pentafluoro-λ^6-sulphanyl)benzamide] | 8.9
Cc1cc(C)c(-n2ccn3nc(-c4cncnc4)cc23)cc1NC(=O)c1cccc(S(F)(F)(F)(F)F)c1 [Example 164, N-{2,4-Dimethyl-5-[6-(pyrimidin-5-yl)-1H-imidazo[1,2-b]pyrazol-1-yl]phenyl}-3-(pentafluoro-λ^6-sulphanyl)benzamide] | 0.4
Cc1cc(C)c(-n2ccn3nc(-c4cncnc4)cc23)cc1NC(=O)c1cc(Br)cc(S(F)(F)(F)(F)F)c1 [Example 165, 3-Bromo-N-{2,4-dimethyl-5-[6-(pyrimidin-5-yl)-1H-imidazo[1,2-b]pyrazol-1-yl]phenyl}-5-(pentafluoro-λ^6-sulphanyl)benzamide] | 1.7
Cc1cc(C)c(-n2ccn3nc(-c4cncnc4)cc23)cc1NC(=O)c1cc(C#N)cc(S(F)(F)(F)(F)F)c1 [Example 166, 3-Cyano-N-{2,4-dimethyl-5-[6-(pyrimidin-5-yl)-1H-imidazo[1,2-b]pyrazol-1-yl]phenyl}-5-(pentafluoro-λ^6-sulphanyl)benzamide] | 0.3
Cc1ccc(NC(=O)c2cc(C#N)cc(S(F)(F)(F)(F)F)c2)cc1-n1ccn2nc(-c3ccnnc3)cc12 [Example 168, 3-Cyano-N-{4-methyl-3-[6-(pyridazin-4-yl)-1H-imidazo[1,2-b]pyrazol-1-yl]phenyl}-5-(pentafluoro-λ^6-sulphanyl)benzamide] | 726
Cc1cc(C)c(-n2ccn3nc(-c4cccnn4)cc23)cc1NC(=O)c1cccc(S(F)(F)(F)(F)F)c1 [Example 169, N-{2,4-Dimethyl-5-[6-(pyridazin-3-yl)-1H-imidazo[1,2-b]pyrazol-1-yl]phenyl}-3-(pentafluoro-λ^6-sulphanyl)benzamide] | 1
Cc1cc(C)c(-n2ccn3nc(-c4cccnn4)cc23)cc1NC(=O)c1cc(Br)cc(S(F)(F)(F)(F)F)c1 [Example 170, 3-Bromo-N-{2,4-dimethyl-5-[6-(pyridazin-3-yl)-1H-imidazo[1,2-b]pyrazol-1-yl]phenyl}-5-(pentafluoro-λ^6-sulphanyl)benzamide] | 1.2
Cc1cc(C)c(-n2ccn3nc(-c4cccnn4)cc23)cc1NC(=O)c1cc(C#N)cc(S(F)(F)(F)(F)F)c1 [Example 171, 3-Cyano-N-{2,4-dimethyl-5-[6-(pyridazin-3-yl)-1H-imidazo[1,2-b]pyrazol-1-yl]phenyl}-5-(pentafluoro-λ^6-sulphanyl)benzamide] | 0.3
Cc1ccc(NC(=O)c2cccc(S(F)(F)(F)(F)F)c2)cc1-n1ccn2nc(-c3cncs3)cc12 [Example 172, N-{4-Methyl-3-[6-(1,3-thiazol-5-yl)-1H-imidazo[1,2-b]pyrazol-1-yl]phenyl}-3-(pentafluoro-λ^6-sulphanyl)benzamide] | 7.8
Cc1ccc(NC(=O)c2cc(F)cc(S(F)(F)(F)(F)F)c2)cc1-n1ccn2nc(-c3cncs3)cc12 [Example 173, 3-Fluoro-N-{4-methyl-3-[6-(1,3-thiazol-5-yl)-1H-imidazo[1,2-b]pyrazol-1-yl]phenyl}-5-(pentafluoro-λ^6-sulphanyl)benzamide] | 9.3
Cc1ccc(NC(=O)c2cc(Cl)cc(S(F)(F)(F)(F)F)c2)cc1-n1ccn2nc(-c3cncs3)cc12 [Example 174, 3-Chloro-N-{4-methyl-3-[6-(1,3-thiazol-5-yl)-1H-imidazo[1,2-b]pyrazol-1-yl]phenyl}-5-(pentafluoro-λ^6-sulphanyl)benzamide] | 2.8
Cc1ccc(NC(=O)c2cc(Br)cc(S(F)(F)(F)(F)F)c2)cc1-n1ccn2nc(-c3cncs3)cc12 [Example 175, 3-Bromo-N-{4-methyl-3-[6-(1,3-thiazol-5-yl)-1H-imidazo[1,2-b]pyrazol-1-yl]phenyl}-5-(pentafluoro-λ^6-sulphanyl)benzamide] | 3.2
Cc1ccc(NC(=O)c2cc(S(C)(=O)=O)cc(S(F)(F)(F)(F)F)c2)cc1-n1ccn2nc(-c3cncs3)cc12 [Example 176, 3-(Methylsulphonyl)-N-{4-methyl-3-[6-(1,3-thiazol-5-yl)-1H-imidazo[1,2-b]pyrazol-1-yl]phenyl}-5-(pentafluoro-λ^6-sulphanyl)benzamide] | 0.8
Cc1ccc(NC(=O)c2cc(C#N)cc(S(F)(F)(F)(F)F)c2)cc1-n1ccn2nc(-c3cncs3)cc12 [Example 177, 3-Cyano-N-{4-methyl-3-[6-(1,3-thiazol-5-yl)-1H-imidazo[1,2-b]pyrazol-1-yl]phenyl}-5-(pentafluoro-λ^6-sulphanyl)benzamide] | 1.8
Cc1ccc(NC(=O)c2cc(C(C)(C)O)cc(S(F)(F)(F)(F)F)c2)cc1-n1ccn2nc(-c3cncs3)cc12 [Example 178, 3-(2-Hydroxypropan-2-yl)-N-{4-methyl-3-[6-(1,3-thiazol-5-yl)-1H-imidazo[1,2-b]pyrazol-1-yl]-phenyl}-5-(pentafluoro-λ^6-sulphanyl)benzamide] | 0.8
